Assay results published in patent US20220056019A1, “FARNESOID X RECEPTOR AGONISTS AND USES THEREOF” (Metacrine, Inc., priority 2018, published 2022).

Target: T1, hFXR (Homo sapiens, UniProt Q96RI1)
T1 construct: expressed in transfected cells; host or cells: CV-1 cells
T1 sequence (Q96RI1 1-486): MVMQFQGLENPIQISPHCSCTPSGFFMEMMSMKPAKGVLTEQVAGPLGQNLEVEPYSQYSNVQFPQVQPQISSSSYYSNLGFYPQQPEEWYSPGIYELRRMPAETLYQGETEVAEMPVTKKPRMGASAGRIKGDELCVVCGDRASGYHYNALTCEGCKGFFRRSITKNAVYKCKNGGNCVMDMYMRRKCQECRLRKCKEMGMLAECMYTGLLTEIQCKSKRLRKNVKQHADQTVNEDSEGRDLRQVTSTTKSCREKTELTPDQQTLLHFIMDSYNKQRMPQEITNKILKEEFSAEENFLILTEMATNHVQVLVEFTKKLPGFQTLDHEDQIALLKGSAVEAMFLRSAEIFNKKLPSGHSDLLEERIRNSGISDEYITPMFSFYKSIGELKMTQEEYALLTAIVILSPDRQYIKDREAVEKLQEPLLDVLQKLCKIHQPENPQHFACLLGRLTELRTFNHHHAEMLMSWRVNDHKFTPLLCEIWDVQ
T1 sequence (P19793 1-462 partner): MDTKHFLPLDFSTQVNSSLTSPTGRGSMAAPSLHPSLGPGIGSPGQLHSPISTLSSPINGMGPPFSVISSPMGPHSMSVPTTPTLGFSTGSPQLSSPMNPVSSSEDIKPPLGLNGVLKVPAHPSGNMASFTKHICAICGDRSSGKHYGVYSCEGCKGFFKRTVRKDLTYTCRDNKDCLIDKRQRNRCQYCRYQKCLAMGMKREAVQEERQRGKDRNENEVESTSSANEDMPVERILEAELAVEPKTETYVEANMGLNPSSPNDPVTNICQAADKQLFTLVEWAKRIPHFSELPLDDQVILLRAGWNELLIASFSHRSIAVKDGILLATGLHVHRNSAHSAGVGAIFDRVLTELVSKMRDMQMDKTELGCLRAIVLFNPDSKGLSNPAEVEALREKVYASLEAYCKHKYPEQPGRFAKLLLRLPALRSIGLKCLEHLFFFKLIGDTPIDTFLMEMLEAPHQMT
Assay: In Vitro FXR Assay (TK): TK-ECRE-luc reporter in transfected CV-1 cells
Type: cell-based
Conditions: 18 hrs incubation, luminescence
In short: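 CV-1 cells in DMEM with 10% charcoal-stripped FBS were transiently co-transfected with hFXR, hRXR, TK-ECRE-luc reporter and pCMX-YFP plasmids over 18 h at 37 °C. Compounds serially diluted in DMSO were added for 18 h; cells were then lysed and luciferase luminescence measured.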

| EC50 [nM] | Compound |
| --- | --- |
| 50 to 1000 | COC(=O)CCC(=O)N[C@H]1CC[C@H](C(=O)N(C[C@H]2CC[C@H](c3ccc(OC)c(C)c3)CC2)c2cccc(-c3cnn(C(C)C)c3)c2)CC1 [Compound 10.04, Methyl 4-((trans-4-((3-(1-isopropyl-1H-pyrazol-4-yl)phenyl)((trans-4-(4-methoxy-3-methylphenyl)cyclohexyl)methyl)carbamoyl)cyclohexyl)amino)-4-oxobutanoate] |
| ≤ 50 | COc1ccc(C23CCC(CN(c4cc(-c5cnn(C(C)C)c5)ccn4)C(=O)[C@H]4CC[C@H](NC(C)=O)CC4)(CC2)CC3)cc1C [Compound 10.05, trans-4-Acetamido-N-(4-(1-isopropyl-1H-pyrazol-4-yl)pyridin-2-yl)-N-((4-(4-methoxy-3-methylphenyl)bicyclo[2.2.2]octan-1-yl)methyl)cyclohexane-carboxamide] |
| ≤ 50 | COc1ccc([C@H]2CC[C@H](CN(c3cccc(-c4cnn(C(C)C)c4)c3)C(=O)[C@H]3CC[C@H](NC(=O)C(C)C)CC3)CC2)cc1C [Compound 10.06, trans-4-Isobutyramido-N-(3-(1-isopropyl-1H-pyrazol-4-yl)phenyl)-N-((trans-4-(4-methoxy-3-methylphenyl)cyclohexyl)methyl) cyclohexanecarboxamide] |
| 50 to 1000 | CCC(=O)NC[C@H]1CC[C@H](C(=O)N(C[C@H]2CC[C@H](c3ccc(OC)c(C)c3)CC2)c2cccc(-c3cnn(C(C)C)c3)c2)CC1 [Compound 12.01, (trans)-N-(3-(1-Isopropyl-1H-pyrazol-4-yl)phenyl)-N-(((trans)-4-(4-methoxy-3-methylphenyl)cyclohexyl)methyl)-4-(propionamidomethyl)cyclohexane-carboxamide] |
| 50 to 1000 | COc1ccc([C@H]2CC[C@H](CN(c3cccc(-c4cnn(C(C)C)c4)c3)C(=O)[C@H]3CC[C@H](CNC(=O)C(C)C)CC3)CC2)cc1C [Compound 12.02, (trans)-4-(Isobutyramidomethyl)-i-(3-(1-isopropyl-1H-pyrazol-4-yl)phenyl)-N-(((trans)-4-(4-methoxy-3-methylphenyl)cyclohexyl)methyl) cyclohexanecarboxamide] |
| 50 to 1000 | CCOC(=O)NC[C@H]1CC[C@H](C(=O)N(C[C@H]2CC[C@H](c3ccc(OC)c(C)c3)CC2)c2cccc(-c3cnn(C(C)C)c3)c2)CC1 [Compound 12.03, Ethyl (((trans)-4-((3-(1-isopropyl-1H-pyrazol-4-yl)phenyl)(((trans)-4-(4-methoxy-3-methylphenyl)cyclohexyl)methyl)carbamoyl)cyclohexyl)methyl)car-bamate] |
| 50 to 1000 | COc1ccc([C@H]2CC[C@H](CN(c3cccc(-c4cnn(C(C)C)c4)c3)C(=O)[C@H]3CC[C@H](CNS(=O)(=O)C(C)C)CC3)CC2)cc1C [Compound 12.04, (trans)-N-(3-(1-Isopropyl-1H-pyrazol-4-yl)phenyl)-N-(((trans)-4-(4-methoxy-3-methylphenyl)cyclohexyl)methyl)-4-((1-methylethylsulfonamido)methyl)cy-clohexanecarboxamide] |
| 50 to 1000 | COc1ccc([C@H]2CC[C@H](CN(c3cccc(-c4cnn(C(C)C)c4)c3)C(=O)[C@H]3CC[C@H](CNC(=O)OC(C)C)CC3)CC2)cc1C [Compound 12.05, Isopropyl (((trans)-4-((3-(1-isopropyl-1H-pyrazol-4-yl)phenyl)(((trans)-4-(4-methoxy-3-methylphenyl)cyclohexyl)methyl)carbamoyl)cyclohexyl)methyl)car-bamate] |
| ≤ 50 | COc1ccc([C@H]2CC[C@H](CN(c3cccc(-c4cnn(C(C)C)c4)c3)C(=O)[C@H]3CC[C@H](CNC(=O)OCCO)CC3)CC2)cc1C [Compound 12.06, 2-Hydroxyethyl (((trans)-4-((3-(1-isopropyl-1H-pyrazol-4-yl)phenyl)(((trans)-4-(4-methoxy-3-methylphenyl)cyclohexyl)methyl)carbamoyl)cyclohexyl)methyl)car-bamate] |
| 50 to 1000 | COc1ccc([C@H]2CC[C@H](CN(c3cccc(-c4cnn(C(C)C)c4)c3)C(=O)[C@H]3CC[C@H](NC(=O)COCCO)CC3)CC2)cc1C [Compound 13.01, trans-4-(2-(2-Hydroxyethoxy)acetamido)-N-(3-(1-isopropyl-1H-pyrazol-4-yl)phenyl)-N-((trans-4-(4-methoxy-3-methylphenyl)cyclohexyl)meth-yl)cyclohexanecarboxamide] |
| ≤ 50 | COc1ccc(C23CCC(CN(c4cc(-c5cnn(C(C)C)c5)ccn4)C(=O)[C@H]4CC[C@H](NC(=O)COCCCO)CC4)(CC2)CC3)cc1C [Compound 13.02, trans-4-(2-(3 Hydroxypropoxy)acetamido)-N-(4-(1-isopropyl-1H-pyrazol-4-yl)pyridin-2-yl)-N-((4-(4-methoxy-3-methylphenyl)bicyclo[2.2.2]octan-1-yl)methyl)cyclohexanecarboxamide] |
| ≤ 50 | COc1ccc([C@H]2CC[C@H](CN(c3cccc(-c4cnn(C(C)C)c4)c3)C(=O)[C@H]3CC[C@H](NC(=O)C4CC(=O)C4)CC3)CC2)cc1C [Compound 14.01, trans-N-(3-(1-Isopropyl-1H-pyrazol-4-yl)phenyl)-N-((trans-4-(4-methoxy-3-methylphenyl)cyclohexyl)methyl)-4-(3-oxocyclobutanecarboxamido)cyclo-hexanecarboxamide] |
| 50 to 1000 | COc1ccc([C@H]2CC[C@H](CN(c3cccc(-c4cnn(C(C)C)c4)c3)C(=O)[C@H]3CC[C@H](NC(=O)C4CC(O)C4)CC3)CC2)cc1C (stereo partly drawn) [Compound 14.02, (1r,4r)-4-(3-Hydroxycyclobutanecarboxamido)-N-(3-(1-isopropyl-1H-pyrazol-4-yl)phenyl)-N-((trans-4-(4-methoxy-3-methylphenyl)cyclohexyl)methyl) cyclohexanecarboxamide] |
| ≤ 50 | COc1ccc([C@H]2CC[C@H](CN(c3cc(-c4cnn(C(C)C)c4)ccn3)C(=O)[C@H]3CC[C@H](OCCCO)CC3)CC2)cc1C [Compound 16.01, trans-4-(3-Hydroxypropoxy)-N-(4-(1-isopropyl-1H-pyrazol-4-yl)pyridin-2-yl)-N-((trans-4-(4-methoxy-3-methylphenyl)cyclohexyl)methyl)cyclo-hexanecarboxamide] |

Further lines, the compound ahead of its results:

| Compound | EC50 [nM] |
| --- | --- |
| COc1ccc([C@H]2CC[C@H](CN(c3cccc(-c4cnn(C(C)C)c4)c3)C(=O)[C@H]3CC[C@H](CN)CC3)CC2)cc1C [Compound 11, (trans)-4-(Aminomethyl)-N-(3-(1-isopropyl-1H-pyrazol-4-yl)phenyl)-N-(((trans)-4-(4-methoxy-3-methylphenyl)cyclohexyl)methyl)cyclohexanecarboxamide] | 1000 to 10000 |
| CCS(=O)(=O)NC[C@H]1CC[C@H](C(=O)N(C[C@H]2CC[C@H](c3ccc(OC)c(C)c3)CC2)c2cccc(-c3cnn(C(C)C)c3)c2)CC1 [Compound 12, (trans)-4-(Ethylsulfonamidomethyl)-N-(3-(1-isopropyl-1H-pyrazol-4-yl)phenyl)-N-(((trans)-4-(4-methoxy-3-methylphenyl)cyclohexyl)methyl)cyclohexanecarboxamide] | ≤ 50 |
| COc1ccc([C@H]2CC[C@H](CN(c3cccc(-c4cnn(C(C)C)c4)c3)C(=O)[C@H]3CC[C@H](NC(=O)COCCCO)CC3)CC2)cc1C [Compound 13, trans-4-(2-(3-Hydroxypropoxy)acetamido)-N-(3-(1-isopropyl-1H-pyrazol-4-yl)phenyl)-N-((trans-4-(4-methoxy-3-methylphenyl)cyclohexyl)methyl)cyclohexanecarboxamide] | ≤ 50 |
| COc1ccc([C@H]2CC[C@H](CN(c3cccc(-c4cnn(C(C)C)c4)c3)C(=O)[C@H]3CC[C@H](NC(=O)CCCO)CC3)CC2)cc1C [Compound 14, trans-4-(4-Hydroxybutanamido)-N-(3-(1-isopropyl-1H-pyrazol-4-yl)phenyl)-N-((trans-4-(4-methoxy-3-methylphenyl)cyclohexyl)methyl)cyclohexanecarboxamide] | 50 to 1000 |
| COc1ccc([C@H]2CC[C@H](CN(c3cccc(-c4cnn(C(C)C)c4)c3)C(=O)[C@H]3CC[C@H](CCO)CC3)CC2)cc1C [Compound 15, trans-4-(2-Hydroxyethyl)-N-(3-(1-isopropyl-1H-pyrazol-4-yl)phenyl)-N-((trans-4-(4-methoxy-3-methylphenyl)cyclohexyl)methyl)cy-clohexanecarboxamide] | ≤ 50 |
| COc1ccc([C@H]2CC[C@H](CN(c3cccc(-c4cnn(C(C)C)c4)c3)C(=O)[C@H]3CC[C@H](OCCCO)CC3)CC2)cc1C [Compound 16, trans-4-(3-Hydroxypropoxy)-N-(3-(1-isopropyl-1H-pyrazol-4-yl)phenyl)-N-((trans-4-(4-methoxy-3-methylphenyl)cyclohexyl)methyl)cyclohexanecarboxamide] | ≤ 50 |
